The species entered for test [1] is Mus musculus. Kind of test: Antiepileptic activity in Mus musculus (mouse) assessed as minimum dose required to protect half or more number of animals against maximal electroshock-induced seizures after 0.5 hr. The format is functional. The settings on record: read-out: MED. Background: In the maximal electroshock model the usual endpoint is tonic extension of the hind limbs.

Test [2] has as its system Mus musculus. Kind of test: Antiepileptic activity in Mus musculus (mouse) assessed as protection against maximal electroshock-induced seizures at 300 mg/kg after 0.5 hr. The format is functional, organism-based. On the set-up: dose 300 mg/kg.

Structures are written as SMILES. Active and inactive are the calls of the source. No cut-off for these calls is given here.

For the compound `CCOc1ccc(NC2=NSC(Nc3ccc(OCC)cc3)N2)cc1` (centres undefined), the minimal effective dose in the test filed under Mus musculus [1] worked out at 100 mg/kg.

Take `CNC(=S)Nc1ccc(S(=O)(=O)Nc2nc3ccc(F)cc3s2)cc1`: in the test filed under Mus musculus [1], the minimal effective dose is 300 mg/kg.

As to `c1cncc(NC2=NSC(Nc3cccnc3)N2)c1` (centres undefined), the minimal effective dose in the test listed under Mus musculus [1] came out at 300 mg/kg.

`O=C1C=CC(=NNC(=O)Nc2ccc([N+](=O)[O-])cc2)C=C1`: in the test filed under Mus musculus [1], the minimal effective dose worked out at 300 mg/kg.

Regarding `CNC(=S)Nc1ccc(S(=O)(=O)Nc2ccc(Cl)cc2)cc1`, the minimal effective dose in the test filed under Mus musculus [1] was found to be 300 mg/kg.

`C/C(=N\NC(=O)Nc1ccc(Br)cc1)c1ccc([N+](=O)[O-])cc1`: the minimal effective dose in the test listed under Mus musculus [1] was 300 mg/kg.

For `C/C(=N\NC(=O)Nc1ccc(Br)cc1)c1ccc(O)cc1`, the minimal effective dose in the test listed under Mus musculus [1] came to 300 mg/kg.

As to `O=C(N/N=C/c1ccccc1[N+](=O)[O-])Nc1ccc(Br)cc1`, the minimal effective dose in the test filed under Mus musculus [1] worked out at 300 mg/kg.

`CC(C)=NNC(=O)Nc1ccc([N+](=O)[O-])cc1`: the minimal effective dose in the test filed under Mus musculus [1] was 300 mg/kg.

With `c1ccc2c(NC3=NSC(Nc4cccc5ccccc45)N3)cccc2c1` (centres undefined), in the test filed under Mus musculus [1], the minimal effective dose was found to be 100 mg/kg.

For the compound `CCOc1ccc(NC(=O)N/N=C/c2ccccc2O)cc1`, the minimal effective dose in the test listed under Mus musculus [1] was 300 mg/kg.

As to `COc1cc(/C=N/NC(=O)Nc2ccc(Br)cc2)ccc1O`, the minimal effective dose in the test filed under Mus musculus [1] came out at 300 mg/kg.

Regarding `CCOc1ccc(NC(=O)N/N=C(\C)CC(C)C)cc1`, in the test listed under Mus musculus [1], the minimal effective dose worked out at 100 mg/kg.

In the case of `c1cc(NC2=NSC(Nc3ccncc3)N2)ccn1` (centres undefined), the minimal effective dose in the test filed under Mus musculus [1] is 300 mg/kg.

For `C/C(=N\NC(=O)Nc1ccc(Br)cc1)c1ccc(N)cc1`, the minimal effective dose in the test listed under Mus musculus [1] came to 300 mg/kg.

`CNC(=S)Nc1ccc(S(=O)(=O)Nc2ccc(Br)cc2)cc1`: the minimal effective dose in the test listed under Mus musculus [1] is 300 mg/kg.

Take `O=c1snc(Nc2ccc(F)cc2)n1-c1ccc(F)cc1`: the minimal effective dose in the test filed under Mus musculus [1] worked out at 100 mg/kg.

For the compound `CCOc1ccc(NC(=O)N/N=C(\C)c2ccccc2O)cc1`, the minimal effective dose in the test filed under Mus musculus [1] came out at 100 mg/kg.

On to `CCOc1ccc(NC(=O)N/N=C(\C)c2ccc(Cl)cc2)cc1`, for which the minimal effective dose in the test filed under Mus musculus [1] is 300 mg/kg.

Regarding `CCNC(=S)Nc1ccc(S(=O)(=O)Nc2nc3ccc(Cl)cc3s2)cc1`, the outcome with Mus musculus [2] was inactive.

For `O=C(NN=C1c2ccccc2C(=O)c2ccccc21)Nc1ccc([N+](=O)[O-])cc1`, the minimal effective dose in the test listed under Mus musculus [1] stood at 300 mg/kg.

In the case of `O=c1snc(Nc2ccccn2)n1-c1ccccn1`, in the test filed under Mus musculus [1], the minimal effective dose worked out at 300 mg/kg.

On to `O=C(N/N=C/c1ccccc1Cl)Nc1ccc(Br)cc1`, for which the minimal effective dose in the test filed under Mus musculus [1] amounted to 300 mg/kg.

As to `CCOc1ccc(NC(=O)N/N=C(\C)c2ccc(O)cc2)cc1`, the minimal effective dose in the test listed under Mus musculus [1] was found to be 100 mg/kg.

Consider `Cc1ccc(NC(=S)Nc2ccc(S(=O)(=O)Nc3ccc(C)cc3)cc2)cc1`, for which, in the test listed under Mus musculus [1], the minimal effective dose is 300 mg/kg.

Consider `CCOc1ccc(NC(=O)N/N=C/c2ccccc2Cl)cc1`, for which the minimal effective dose in the test filed under Mus musculus [1] was determined as 100 mg/kg.

Consider `O=c1snc(Nc2cccc3ccccc23)n1-c1cccc2ccccc12`, for which, in the test listed under Mus musculus [1], the minimal effective dose was determined as 100 mg/kg.

Take `O=C(NN=C(c1ccccc1)c1ccccc1)Nc1ccc(Br)cc1`: the minimal effective dose in the test listed under Mus musculus [1] was 300 mg/kg.

With `O=c1snc(Nc2ncccn2)n1-c1ncccn1`, the minimal effective dose in the test listed under Mus musculus [1] amounted to 300 mg/kg.

With `c1ccc(NC2=NSC(Nc3ccccn3)N2)nc1` (centres undefined), the minimal effective dose in the test listed under Mus musculus [1] was 300 mg/kg.

As to `CCOc1ccc(Nc2nsc(=O)n2-c2ccc(OCC)cc2)cc1`, the minimal effective dose in the test listed under Mus musculus [1] was 100 mg/kg.

Consider `CNC(=S)Nc1ccc(S(=O)(=O)Nc2nc3ccc(Cl)cc3s2)cc1`, for which the result with Mus musculus [2] was inactive.

On to `O=c1snc(Nc2ccncc2)n1-c1ccncc1`, for which, in the test listed under Mus musculus [1], the minimal effective dose came out at 300 mg/kg.

Take `C/C(=N\NC(=O)Nc1ccc(Br)cc1)c1ccc(C)cc1`: the outcome in the test with Mus musculus [2] was inactive.

Regarding `C/C(=N\NC(=O)Nc1ccc(Br)cc1)c1ccccc1`, the minimal effective dose in the test filed under Mus musculus [1] is 100 mg/kg.

For `Cc1ccc(NC(=S)Nc2ccc(S(=O)(=O)Nc3ccc(Br)cc3)cc2)cc1`, the minimal effective dose in the test filed under Mus musculus [1] came out at 100 mg/kg.

As to `CCOc1ccc(NC(=O)N/N=C(\C)CC(C)=O)cc1`, the minimal effective dose in the test listed under Mus musculus [1] was 100 mg/kg.

As to `COc1ccc(/C=N/NC(=O)Nc2ccc(Br)cc2)cc1OC`, the minimal effective dose in the test filed under Mus musculus [1] is 300 mg/kg.

As for `CNC(=S)Nc1ccc(S(=O)(=O)Nc2nc3ccc(OC)cc3s2)cc1`, in the test listed under Mus musculus [1], the minimal effective dose was determined as 300 mg/kg.

Turning to `Cc1ccc(NC(=S)Nc2ccc(S(=O)(=O)Nc3ccc(Cl)cc3)cc2)cc1`, in the test filed under Mus musculus [1], the minimal effective dose came out at 100 mg/kg.

`CN(C)c1ccc(/C=N/NC(=O)Nc2ccc(Br)cc2)cc1`: in the test listed under Mus musculus [1], the minimal effective dose was 300 mg/kg.

As to `Fc1ccc(NC2=NSC(Nc3ccc(F)cc3)N2)cc1` (centres undefined), in the test filed under Mus musculus [1], the minimal effective dose turned out to be 100 mg/kg.

Take `CCNC(=S)Nc1ccc(S(=O)(=O)Nc2nc3ccc(F)cc3s2)cc1`: the minimal effective dose in the test listed under Mus musculus [1] worked out at 300 mg/kg.

`O=c1snc(Nc2cccnc2)n1-c1cccnc1`: the minimal effective dose in the test listed under Mus musculus [1] amounted to 300 mg/kg.

These data come from ChEMBL document CHEMBL3044657, “Identification of an antiepileptic lead compound with a more selective activity and its analogues for GABA-AT using in silico approach” (2013).
